In patent US10322191B2, “Targeted conjugates and particles and formulations thereof” (TARVEDA THERAPEUTICS, INC., priority 2014, dated 2019):
Like-named read-outs stand apart in the source and are kept apart here. Numbered stars: 1 amine (or outer) side, 2 acyl side, 3 side chain; on linkers, the order of the positions; unused ones are H or OH. Bridge positions count the residues as written; N and C are the ends. Square brackets hold non-standard residues; d marks the D form. Peptide text beside a SMILES is read from it. * marks the point of attachment. X1 = COc1cc2cc(c1Cl)N(C)C(=O)C[C@H](OC(=O)[C@H](C)N(C)C(=O)CCS*)[C@]1(C)O[C@H]1[C@H](C)[C@@H]1C[C@@](O)(NC(=O)O1)[C@H](OC)/C=C/C=C(\C)C2; N(3-sulfanylpropyl)dPhe = O=C([C@@H](Cc1ccccc1)N(CCCS[*:3])[*:1])[*:2]

Columns and labels:
[1] = tested on: NCI-H524 (ATCC) human lung cancer cells; assay type: cell-based
Method in brief: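 NCI-H524 cells at 5,000/well were exposed to conjugate for 2 h from 20 μM top dose (ten-point, three-fold dilutions), washed, then grown a further 70 h. For competition, cells were pretreated 30 min with 100 μM octreotide. CellTiter Glo readout; % inhibition vs vehicle; four-parameter IC50.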

[2] = tested on: NCI-H69 SCLC (small cell lung cancer) tumors; test: H69 tumor DM-1 levels by LC/MS-MS; assay type: in vivo, mice; details: 24 hour time point; dosed at 1 mg/kg (conjugates, nanoparticles) or 0.4 mg/kg for DM-1
Protocol: To examine the ability of conjugates of the present invention to accumulate in tumors, a murine cancer model was used. All mice were treated in accordance with the OLAW Public Health Service Policy on Human Care and Use of Laboratory Animals and the ILAR Guide for the Care and Use of Laboratory Animals. All in vivo studies were conducted following the protocols approved by the Blend Therapeutics Institutional Animal Care and Use Committee. Animals were inoculated with 2.5×10{circumflex over (0)}6 NCI-H69 SCLC (small cell lung cancer) cells in 1:1 RPMI 1640 (Invitrogen, Carlsbad, Calif.)/Matrigel® (BD Biosciences, San Jose, Calif.) via subcutaneous injection to the right flank. Tumors were allowed to reach an approximate volume of ˜500 mm3. Animals were then randomized into treatment groups of 3 animals per time point and were dosed at 1 mg/kg (10% propylene glycol in water for injection for free conjugates, or 10% sucrose for nanoparticles), or 0.4 mg/kg for DM-1 (10% propylene glycol in water for injection). The 24 hour time point was used as a benchmark across conjugates.
Tumor DM-1 levels were determined by liquid chromatography mass spectrometry (LC/MS-MS). Four volumes of 5 mM 6-maleimidohexanoic acid to 1 part tumor v/w was added and homogenized for about 10-15 seconds with a handheld homogenizer. 10 μL of 500 mM Tris(2-carboxyethyl)phosphine was added to 100 uL of tumor homogenate, mixed well and incubated at room temperature for about 5-15 min. 200-300 uL of acetonitrile was used to precipitate proteins in tumor homogenate, samples were centrifuged for 5 min, and supernatant was injected onto LC/MS-MS system for DM-1 analysis.

SSTR2 [3] = target: T1, SSTR2 (Homo sapiens, UniProt P30874); test: Radioligand-receptor binding assay, [125I] labeled somatostatin, membranes from SSTR2 expressing CHO-K1 cells; set-up: host or cells: CHO-K1
Protocol: Two conjugates were assessed in an in vitro assay evaluating binding to the somatostatin receptor 2 (SSTR2). A radioligand-receptor binding assay was conducted at Eurofins Panlabs (Taiwan) to determine the affinity of conjugates described herein to the SSTR2. The assay measures binding of radiolabeled ligand, [^125I] labeled somatostatin, to human SSTR2 using membrane preparations from SSTR2 expressing CHO-K1 cells. Membranes were incubated with radiolabeled somatostatin (0.03 nM) in the presence of conjugate/compound starting at a dose of 10 uM using 6× serial dilutions to obtain a 10-pt curve. After a four-hour incubation, membranes were filtered and washed 3× and counted to determine the remaining [^125I] somatostatin bound to the receptor. IC50 values were determined by a non-linear, least squares regression analysis using MathIQ™ (ID Business Solutions Ltd., UK). The Ki values were calculated using the equation of Cheng and Prusoff (Cheng and Prusoff, Biochem. Pharmacol. 22: 3099-3108, 1973) using the observed IC50 of the tested conjugate/compound, the concentration of radioligand employed in the assay, and the historical values for the KD of the ligand obtained at Eurofins.

SSTR2 [4] = target: T1, SSTR2; test: PathHunter eXpress Activated GPCR Internalization agonist assay; assay type: cell-based; set-up: expressed in transfected cells; details: receptor internalization, agonist dose response
Protocol: Two conjugates were assessed in an in vitro assay evaluating SSTR2. The steps outlined below provide the assay volumes and procedure for performing agonist assays using the PathHunter eXpress Activated GPCR Internalization cells and PathHunter Detection Reagents generally according to the manufacturer's recommendations. GraphPad Prism® was used to plot the agonist dose response.

human NCI-H69 SCLC = test: Tumor growth of human NCI-H69 SCLC in mice; assay type: in vivo, NCR nude mice; details: for tumor volume: Conjugate 10 and Conjugate 10 NP6 2 mg/kg, DM1 0.8 mg/kg, once weekly for two doses, up to 100 days, FIG. 4
Protocol: Applicants assessed the activity of a conjugate and a nanoparticle formulation of the conjugate in vivo. In these experiments, the ability of compounds to affect the growth of human NCI-H69 SCLC was tested. For the in vivo study, 8 week old female NCR nude mice were inoculated subcutaneously into the right flank with 2 million cells in 1:1 RPMI 1640 (Invitrogen, Carlsbad, Calif.)/Matrigel® (BD Biosciences, San Jose, Calif.). Tumor measurements were taken twice weekly, using vernier calipers. Tumor volume was calculated using the formula: V=0.5×width×width×length.
When tumors approached a volume of 200 mm^3, mice were randomized into four groups of ten animals. Mice were treated with vehicle control (10% propylene glycol in water for injection), Conjugate 10 at 2 mg/kg (10% propylene glycol in water for injection), Conjugate 10 NP6 nanoparticle at 2 mg/kg (10% Sucrose), or DM1 at 0.8 mg/kg (10% propylene glycol in water for injection). Mice were dosed once weekly for two doses. Final tumor volumes were analyzed using with a one-way analysis of variance and Tukey multiple comparison test.
Tumor volume study was repeated with three doses for vehicle, Conjugate 10 (0.7 mg/kg each), and Conjugate 10 NP6 (0.7 mg/kg each). Tumor volumes were tracked for 30 days.

[5] = Solubility in aqueous media containing surfactants such as Tween 80; assay type: physicochemical; details: aqueous Tween 80
[6] = Pharmacokinetics in rat plasma of Conjugate 10 and Conjugate 10 NP6; details: in vivo
Protocol: Pharmacokinetics studies in rat plasma were also carried out. AUC values were show in Table 16.

phospho-histone H3 = test: Phospho-histone H3 response in NCI-H69 tumors; assay type: in vivo; details: FIG. 8
[7] = Table 15, treated 2 hours, further incubated 70 hours, read-out: H524 IC50
[8] = read-out: H524 IC50+ 100 uM octreotide, Table 15, 100 μM octreotide for 30 min, then conjugate 2 hours, 70 hours incubation
[9] = Table 6, treated 2 hours, further incubated 70 hours, read-out: H524 IC50
[10] = read-out: H524 IC50 + 100 μM octreotide, Table 6, with octreotide competition

T1 sequence (P30874 whole entry): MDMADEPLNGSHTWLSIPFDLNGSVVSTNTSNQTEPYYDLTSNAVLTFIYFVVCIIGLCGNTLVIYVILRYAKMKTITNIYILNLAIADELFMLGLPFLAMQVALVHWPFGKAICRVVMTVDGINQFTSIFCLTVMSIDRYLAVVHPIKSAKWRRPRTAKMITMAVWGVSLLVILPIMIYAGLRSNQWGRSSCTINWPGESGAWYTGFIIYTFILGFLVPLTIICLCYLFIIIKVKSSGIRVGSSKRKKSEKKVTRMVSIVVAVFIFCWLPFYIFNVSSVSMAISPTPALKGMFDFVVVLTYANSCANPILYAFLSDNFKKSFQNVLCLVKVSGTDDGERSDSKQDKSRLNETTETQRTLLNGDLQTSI

COc1cc2cc(c1Cl)N(C)C(=O)C[C@H](OC(=O)[C@H](C)N(C)C(=O)CCSSCCCN[C@H](Cc1ccccc1)C(=O)N[C@H]1CSSC[C@@H](C(=O)N[C@@H](Cc3c[nH]c4ccccc34)C(N)=O)NC(=O)[C@H](C(C)C)NC(=O)[C@H](CCCCN)NC(=O)[C@@H](Cc3c[nH]c4ccccc34)NC(=O)[C@H](Cc3ccc(O)cc3)NC1=O)[C@]1(C)O[C@H]1[C@H](C)[C@@H]1C[C@@](O)(NC(=O)O1)[C@H](OC)/C=C/C=C(\C)C2 [Conjugate 78] (H-[N(3-sulfanylpropyl)dPhe](X1)CY[dW]KVCW-NH2; disulfide 2-7)
IC50 [1, 7]: 124 nM
IC50 [1, 8]: 365 nM
H69 tumor DM-1 levels [2]: 36.2 nM
Ki (SSTR2 [3]): 0.19 nM

COc1cc2cc(c1Cl)N(C)C(=O)C[C@H](OC(=O)[C@H](C)N(C)C(=O)CCSSCCCN[C@H](Cc1ccccc1)C(=O)N[C@H]1CSSC[C@@H](C(=O)N[C@H](CO)[C@@H](C)O)NC(=O)[C@H]([C@@H](C)O)NC(=O)[C@H](CCCCN)NC(=O)[C@@H](Cc3c[nH]c4ccccc34)NC(=O)[C@H](Cc3ccccc3)NC1=O)[C@]1(C)O[C@H]1[C@H](C)[C@@H]1C[C@@](O)(NC(=O)O1)[C@H](OC)/C=C/C=C(\C)C2 [Conjugate 76]
IC50 [1, 7]: 120 nM
IC50 [1, 8]: 768 nM
H69 tumor DM-1 levels [2]: 62.2 nM
Ki (SSTR2 [3]): 0.12 nM
EC50 (SSTR2 [4]): 3 nM

COc1cc2cc(c1Cl)N(C)C(=O)C[C@H](OC(=O)[C@H](C)N(C)C(=O)CCSSCCC(=O)NCCCOCCOCCOCCCNC(=O)CC[C@H]1C(=O)N[C@@H](Cc3ccc(O)cc3)C(=O)N[C@H](Cc3c[nH]c4ccccc34)C(=O)N[C@@H](CCCCN)C(=O)N[C@@H]([C@@H](C)O)C(=O)N[C@@H](Cc3ccccc3)C(=O)N1C)[C@]1(C)O[C@H]1[C@H](C)[C@@H]1C[C@@](O)(NC(=O)O1)[C@H](OC)/C=C/C=C(\C)C2 [Conjugate 18]
IC50 [1, 7]: 1480 nM
IC50 [1, 8]: 2160 nM
H69 tumor DM-1 levels [2]: 86.3 nM

COc1cc2cc(c1Cl)N(C)C(=O)C[C@H](OC(=O)[C@H](C)N(C)C(=O)CCS)[C@]1(C)O[C@H]1[C@H](C)[C@@H]1C[C@@](O)(NC(=O)O1)[C@H](OC)/C=C/C=C(\C)C2 [DM-1, reference compound]
IC50 [1, 7]: 90 nM
IC50 [1, 8]: 90 nM
H69 tumor DM-1 levels [2]: 31.6 nM

COc1cc2cc(c1Cl)N(C)C(=O)C[C@H](OC(=O)[C@H](C)N(C)C(=O)CCS)[C@]1(C)O[C@H]1[C@H](C)[C@@H]1C[C@@](O)(NC(=O)O1)[C@H](OC)/C=C/C=C(\C)C2 [DM1, reference compound]
tumor volume (human NCI-H69 SCLC): tumor volume increased rapidly

COc1cccc2c1C(=O)c1c(O)c3c(c(O)c1C2=O)C[C@@](O)(C(=O)COC(=O)CCCC(=O)N[C@H](Cc1ccccc1)C(=O)N[C@H]1CSSC[C@@H](C(=O)N[C@H](CO)[C@@H](C)O)NC(=O)[C@H]([C@@H](C)O)NC(=O)[C@H](CCCCN)NC(=O)[C@@H](Cc2c[nH]c4ccccc24)NC(=O)[C@H](Cc2ccccc2)NC1=O)C[C@@H]3O[C@H]1C[C@H](N)[C@H](O)[C@H](C)O1 [Conjugate 2]
IC50 [1, 9]: 2850 nM
IC50 [1, 10]: 2940 nM
solubility in aqueous media containing surfactants such as Tween 80 [5]: high solubility
Ki (SSTR2 [3]; read-out: SSTR2 Ki): 0.24 nM
EC50 (SSTR2 [4]): 35 nM

COc1cc2cc(c1Cl)N(C)C(=O)C[C@H](OC(=O)[C@H](C)N(C)C(=O)CCSSCCC(=O)NCCCC[C@H]1C(=O)N[C@@H](Cc3ccc(O)cc3)C(=O)N[C@H](Cc3c[nH]c4ccccc34)C(=O)N[C@@H](CCCCN)C(=O)N[C@@H]([C@@H](C)O)C(=O)N[C@@H](Cc3ccccc3)C(=O)N1C)[C@]1(C)O[C@H]1[C@H](C)[C@@H]1C[C@@](O)(NC(=O)O1)[C@H](OC)/C=C/C=C(\C)C2 [Conjugate 10]
IC50 [1, 7]: 156 nM
IC50 [1, 8]: 625 nM
H69 tumor DM-1 levels [2]: 72.1 nM
tumor volume (human NCI-H69 SCLC): initially provided tumor regression, but tumors regrew
animals removed from the study due to large tumor size (tumor size less than 2000 mm^3 curve) (human NCI-H69 SCLC; out to 100 days, 2 mg/kg, two doses, FIG. 5): three
AUC(0-inf) [6]: 0.377 µM·h
clearance [6]: 13 mL/min/kg
phospho-histone H3 response in NCI-H69 tumors after treatment (phospho-histone H3): Increase
phospho-histone H3 response at around 50 hour (phospho-histone H3; around 50 hour): started to decrease
Ki (SSTR2 [3]): 0.1 nM

COc1cc2cc(c1Cl)N(C)C(=O)C[C@H](OC(=O)[C@H](C)N(C)C(=O)CCSSCCC(=O)NCc1ccc(C[C@@H](N)C(=O)N[C@H]3CSSC[C@@H](C(=O)N[C@H](C(=O)O)[C@@H](C)O)NC(=O)[C@H]([C@@H](C)O)NC(=O)[C@H](CCCCN)NC(=O)[C@@H](Cc4c[nH]c5ccccc45)NC(=O)[C@H](Cc4ccc(O)cc4)NC3=O)cc1)[C@]1(C)O[C@H]1[C@H](C)[C@@H]1C[C@@](O)(NC(=O)O1)[C@H](OC)/C=C/C=C(\C)C2 [Conjugate 115]
IC50 [1, 7]: 327 nM
IC50 [1, 8]: 1500 nM
H69 tumor DM-1 levels [2]: 37.1 nM

CCCCCCCCN[C@H](Cc1ccccc1)C(=O)N[C@H]1CSSC[C@@H](C(=O)N[C@H](C(=O)NCCSSCCC(=O)N(C)[C@@H](C)C(=O)O[C@H]2CC(=O)N(C)c3cc(cc(OC)c3Cl)C/C(C)=C/C=C/[C@@H](OC)[C@@]3(O)C[C@H](OC(=O)N3)[C@@H](C)[C@@H]3O[C@@]23C)[C@@H](C)O)NC(=O)[C@H]([C@@H](C)O)NC(=O)[C@H](CCCCN)NC(=O)[C@@H](Cc2c[nH]c3ccccc23)NC(=O)[C@H](Cc2ccc(O)cc2)NC1=O [Conjugate 55]
IC50 [1, 7]: 47 nM
IC50 [1, 8]: 395 nM
H69 tumor DM-1 levels [2]: 95.3 nM

CO[C@H]1C(=O)[C@]2(C)[C@@H](OC)C[C@H]3OC[C@@]3(OC(C)=O)[C@H]2[C@H](OC(=O)c2ccccc2)[C@]2(O)C[C@H](OC(=O)[C@H](OC(=O)OCCSSCCC(=O)N[C@H](Cc3ccccc3)C(=O)N[C@H]3CSSC[C@@H](C(=O)N[C@H](CO)[C@@H](C)O)NC(=O)[C@H]([C@@H](C)O)NC(=O)[C@H](CCCCN)NC(=O)[C@@H](Cc4c[nH]c5ccccc45)NC(=O)[C@H](Cc4ccccc4)NC3=O)[C@@H](NC(=O)OC(C)(C)C)c3ccccc3)C(C)=C1C2(C)C [Conjugate 1]
IC50 [1, 9]: 110 nM
IC50 [1, 10]: 146 nM
solubility in aqueous media containing surfactants such as Tween 80 [5]: high solubility
Ki (SSTR2 [3]; read-out: SSTR2 Ki): 0.8 nM
EC50 (SSTR2 [4]): 4.4 nM
